Laboratory results reported in patent publication US10316049B2, “Tank-binding kinase inhibitor compounds” (Gilead Sciences, Inc., priority 2015, dated 2019).

Key:
IKKε = target: T1, IKKε (Homo sapiens, UniProt Q14164); test: TR-FRET enzymatic activity assay, IKKε; format: biochemical; settings: read-out: IKKϵ IC50; note: full length recombinant IKKε at 0.3 nM
T1 construct: TBK1 and IKKε were expressed and purified as full length recombinant proteins; made in house
T1 sequence (Q14164 1-716): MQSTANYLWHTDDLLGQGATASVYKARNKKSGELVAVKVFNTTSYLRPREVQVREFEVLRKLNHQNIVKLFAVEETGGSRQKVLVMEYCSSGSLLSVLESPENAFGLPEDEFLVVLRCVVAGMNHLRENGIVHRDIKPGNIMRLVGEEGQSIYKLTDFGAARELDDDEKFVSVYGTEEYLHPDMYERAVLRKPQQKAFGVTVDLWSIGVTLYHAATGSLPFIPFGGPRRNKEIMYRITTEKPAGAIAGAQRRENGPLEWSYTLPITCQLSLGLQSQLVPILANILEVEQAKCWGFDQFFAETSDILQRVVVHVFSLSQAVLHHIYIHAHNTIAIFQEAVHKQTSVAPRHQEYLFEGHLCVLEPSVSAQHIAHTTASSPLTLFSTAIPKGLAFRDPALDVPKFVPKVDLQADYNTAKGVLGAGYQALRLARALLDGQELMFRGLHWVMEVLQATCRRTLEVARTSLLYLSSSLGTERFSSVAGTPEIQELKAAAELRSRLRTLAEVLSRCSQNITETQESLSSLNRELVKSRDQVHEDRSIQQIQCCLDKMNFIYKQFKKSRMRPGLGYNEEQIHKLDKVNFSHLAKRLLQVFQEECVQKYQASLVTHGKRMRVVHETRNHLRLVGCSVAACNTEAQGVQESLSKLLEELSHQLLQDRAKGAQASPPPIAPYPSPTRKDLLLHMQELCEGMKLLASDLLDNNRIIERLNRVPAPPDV
Procedure, shortened: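 IC50 values are geometric means of at least four determinations, fitted to a four-parameter curve after normalising to 1 μM staurosporine and DMSO. Signal: Eu-cryptate anti-phospho antibody plus 125 nM streptavidin-XL665 on a biotinylated peptide. Full-length recombinant enzyme reacted 240 min, 25 °C, then EDTA-quenched.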

TBK1 = target: T2, TBK1 (Homo sapiens, UniProt Q9UHD2); test: TR-FRET enzymatic activity assay, TBK1; format: biochemical; note: full length recombinant TBK1 at 2.5 nM
T2 construct: TBK1 and IKKε were expressed and purified as full length recombinant proteins; made in house
T2 sequence (Q9UHD2 1-729): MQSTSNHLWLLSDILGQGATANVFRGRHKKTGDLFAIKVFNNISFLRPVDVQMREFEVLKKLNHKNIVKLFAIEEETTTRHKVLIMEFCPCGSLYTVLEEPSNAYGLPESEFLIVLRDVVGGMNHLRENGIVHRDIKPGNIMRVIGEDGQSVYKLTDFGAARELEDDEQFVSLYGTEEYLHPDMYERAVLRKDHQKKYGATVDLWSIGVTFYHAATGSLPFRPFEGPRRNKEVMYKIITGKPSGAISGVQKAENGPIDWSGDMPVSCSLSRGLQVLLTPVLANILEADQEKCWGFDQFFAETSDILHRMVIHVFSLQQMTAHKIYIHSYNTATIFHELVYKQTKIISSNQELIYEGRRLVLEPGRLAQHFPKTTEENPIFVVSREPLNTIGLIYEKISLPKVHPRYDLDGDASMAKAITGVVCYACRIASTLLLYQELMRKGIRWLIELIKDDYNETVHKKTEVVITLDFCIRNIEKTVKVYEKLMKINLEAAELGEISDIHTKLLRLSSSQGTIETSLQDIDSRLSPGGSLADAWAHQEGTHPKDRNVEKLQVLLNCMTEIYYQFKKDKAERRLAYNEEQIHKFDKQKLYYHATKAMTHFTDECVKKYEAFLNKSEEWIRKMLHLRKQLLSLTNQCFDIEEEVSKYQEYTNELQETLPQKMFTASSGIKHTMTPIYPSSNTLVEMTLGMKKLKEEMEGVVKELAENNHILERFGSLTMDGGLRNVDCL
Procedure, shortened: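 TR-FRET detected phosphorylation of a biotinylated serine/threonine peptide using 125 nM streptavidin XL665 plus europium-labelled anti-phospho antibody. Reactions with full-length recombinant kinase ran 240 min at 25 °C before EDTA quench. Values are geometric-mean IC50s (n ≥ 4) from four-parameter dose-response fits against staurosporine and DMSO controls.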

Row | IC50 (IKKε) | IC50 (TBK1) | Structure (SMILES)
1 | 426 nM | 57.8 nM | N#Cc1cc(-c2ccnc(NC(=O)C3CC3c3ccco3)c2)ccc1OC1CCOCC1 (stereo not shown) [Example 51, N-(4-(3-cyano-4-((tetrahydro-2H-pyran-4-yl)oxy)phenyl)pyridin-2-yl)-2-(furan-2-yl)cyclopropane-1-carboxamide]
2 | 87.8 nM | 34.2 nM | COCC(=O)N1CC[C@H](Oc2ccc(-c3ccnc(NC(=O)[C@H]4C[C@@H]4F)c3)cc2C#N)[C@H](F)C1 [Example 68, (1,2-trans)-N-(4-(3-Cyano-4-(((3R,4S)-3-fluoro-1-(2-methoxyacetyl)piperidin-4-yl)oxy)phenyl)pyridin-2-yl)-2-fluorocyclopropane-1-carboxamide]
3 | 135 nM | 333 nM | N#Cc1cc(-c2ccnc(NC(=O)[C@@H]3CC3C(=O)O)c2)ccc1O[C@H]1CCN(C(=O)CO)C[C@H]1F (stereo in doubt) [Example 84, (1,2-trans)-2-((4-(3-cyano-4-(((3R,4S)-3-fluoro-1-(2-hydroxyacetyl)piperidin-4-yl)oxy)phenyl)pyridin-2-yl)carbamoyl)cyclopropane-1-carboxylic acid]
4 | 429 nM | 302 nM | N#Cc1cc(-c2ccnc(NC(=O)[C@@H]3C[C@H]3C(=O)NCCO)c2)ccc1OC1CCOCC1 (relative stereo) [Example 46, (1,2-trans)-N1-(4-(3-cyano-4-((tetrahydro-2H-pyran-4-yl)oxy)phenyl)pyridin-2-yl)-N2-(2-hydroxyethyl)cyclopropane-1,2-dicarboxamide]
5 | 196 nM | 33.4 nM | N#Cc1cc(-c2ccnc(NC(=O)[C@@H]3C[C@H]3c3ccno3)c2)ccc1OC1CCOCC1 (relative stereo) [Example 102, trans-1,2-N-(4-(3-cyano-4-((tetrahydro-2H-pyran-4-yl)oxy)phenyl)pyridin-2-yl)-2-(isoxazol-5-yl)cyclopropane-1-carboxamide]
6 | 16.2 nM | 16.7 nM | N#Cc1cc(-c2ccnc(NC(=O)[C@@H]3C[C@H]3F)c2)ccc1O[C@H]1CCN(C(=O)CO)C[C@H]1F [Example 62, (1S,2R)—N-(4-(3-cyano-4-(((3R,4S)-3-fluoro-1-(2-hydroxyacetyl)piperidin-4-yl)oxy)phenyl)pyridin-2-yl)-2-fluorocyclopropanecarboxamide]
7 | > 1000 nM | 851 nM | N#Cc1cc(-c2ccnc(NC(=O)C3CC34CCOC4)c2)ccc1OC1CCOCC1 (stereo not shown) [Example 117, N-(4-(3-Cyano-4-((tetrahydro-2H-pyran-4-yl)oxy)phenyl)pyridin-2-yl)-5-oxaspiro[2.4]heptane-1-carboxamide]
8 | > 1000 nM | > 1000 nM | N#Cc1cc(-c2cc(NC(=O)C3CC3)ncn2)ccc1F [Example 105, N-(6-(3-cyano-4-fluorophenyl)pyrimidin-4-yl)cyclopropanecarboxamide]
9 | 68.2 nM | 13.9 nM | N#Cc1cc(-c2ccnc(NC(=O)C3CC3)c2)ccc1N1CCCC1 [Example 5, N-(4-(3-cyano-4-(pyrrolidin-1-yl)phenyl)pyridin-2-yl)cyclopropanecarboxamide]
10 | 181 nM | 29.1 nM | Cn1cc([C@@H]2C[C@H]2C(=O)Nc2cc(-c3ccc(OC4CCOCC4)c(C#N)c3)ccn2)cn1 (relative stereo) [Example 120, (1,2-Trans)-N-(4-(3-cyano-4-((tetrahydro-2H-pyran-4-yl)oxy)phenyl)pyridin-2-yl)-2-(1-methyl-1H-pyrazol-4-yl)cyclopropane-1-carboxamide]
11 | 75.2 nM | 111 nM | N#Cc1cc(-c2ccnc(NC(=O)[C@H]3C[C@H](O)C3)c2)ccc1O[C@H]1CCN(C(=O)CO)C[C@H]1F [Example 80, (1,3-trans)-N-(4-(3-Cyano-4-(((3R,4S)-3-fluoro-1-(2-hydroxyacetyl)piperidin-4-yl)oxy)phenyl)pyridin-2-yl)-3-hydroxycyclobutane-1-carboxamide]
12 | 266 nM | 44.1 nM | CCC[C@H]1C[C@@H]1C(=O)Nc1cc(-c2ccc(OC3CCOCC3)c(C#N)c2)ccn1 (relative stereo) [Example 91, (1,2-trans)-N-(4-(3-cyano-4-((tetrahydro-2H-pyran-4-yl)oxy)phenyl)pyridin-2-yl)-2-propylcyclopropane-1-carboxamide]

More lines, now with the values behind:

Row | Structure (SMILES) | IC50 (IKKε) | IC50 (TBK1)
13 | Cn1ccc([C@H]2C[C@@H]2C(=O)Nc2cc(-c3ccc(O[C@H]4CCN(C(=O)CO)CC4(F)F)c(C#N)c3)ccn2)n1 [Example 103, (1S,2S)—N-(4-(3-cyano-4-(((S)-3,3-difluoro-1-(2-hydroxyacetyl)piperidin-4-yl)oxy)phenyl)pyridin-2-yl)-2-(1-methyl-1H-pyrazol-3-yl)cyclopropane-1-carboxamide] | 14.3 nM | 5.7 nM
14 | CN(C)C(=O)[C@@H]1C[C@@H]1C(=O)Nc1cc(-c2ccc(O[C@H]3CCN(C(=O)CO)C[C@H]3F)c(C#N)c2)ccn1 [Example 79, (1,2-cis)-N^1-(4-(3-cyano-4-(((3R,4S)-3-fluoro-1-(2-hydroxyacetyl)piperidin-4-yl)oxy)phenyl)pyridin-2-yl)-N^2,N^2-dimethylcyclopropane-1,2-dicarboxamide] | > 1000 nM | > 1000 nM
15 | N#CCC(=O)N1CC[C@H](Oc2ccc(-c3cc(NC(=O)C4CC4)ncn3)cc2C#N)C(F)(F)C1 [Example 153, (S)—N-(6-(3-cyano-4-((1-(2-cyanoacetyl)-3,3-difluoropiperidin-4-yl)oxy)phenyl)pyrimidin-4-yl)cyclopropanecarboxamide] | 140 nM | 23.6 nM
16 | C[n+]1ccccc1N1CC[C@H](Oc2ccc(-c3cc(NC(=O)C4CC4)ncn3)cc2C#N)[C@H](F)C1 [Example 31, 2-((3R,4S)-4-(2-cyano-4-(6-(cyclopropanecarboxamido)pyrimidin-4-yl)phenoxy)-3-fluoropiperidin-1-yl)-1-methylpyridin-1-ium 2,2,2-trifluoroacetate] | > 1000 nM | > 1000 nM
17 | N#Cc1cc(-c2ccnc(NC(=O)[C@@H]3C[C@H]3c3cccnc3)c2)ccc1O[C@H]1CCN(C(=O)[C@@H](O)CO)CC1(F)F [Example 139, (1R,2R)—N-(4-(3-cyano-4-(((S)-1-((S)-2,3-dihydroxypropanoyl)-3,3-difluoropiperidin-4-yl)oxy)phenyl)pyridin-2-yl)-2-(pyridin-3-yl)cyclopropane-1-carboxamide] | 16.1 nM | 15.8 nM
18 | N#Cc1cc(-c2ccnc(NC(=O)[C@H]3C[C@@H]3c3cccnc3)c2)ccc1OC1CCOCC1 (relative stereo) [Example 100, (1,2-trans)-N-(4-(3-cyano-4-((tetrahydro-2H-pyran-4-yl)oxy)phenyl)pyridin-2-yl)-2-(pyridin-3-yl)cyclopropane-1-carboxamide] | 130 nM | 20.3 nM
19 | Cn1cc([C@@H]2C[C@H]2C(=O)Nc2cc(-c3ccc(O[C@H]4CCN(C(=O)CO)CC4(F)F)c(C#N)c3)ccn2)cn1 [Example 121, (1R,2R)—N-(4-(3-cyano-4-(((S)-3,3-difluoro-1-(2-hydroxyacetyl)piperidin-4-yl)oxy)phenyl)pyridin-2-yl)-2-(1-methyl-1H-pyrazol-4-yl)cyclopropane-1-carboxamide] | 6.2 nM | 7.2 nM
20 | CCOC(=O)[C@@H]1C[C@H]1C(=O)Nc1cc(-c2ccc(OC3CCOCC3)c(C#N)c2)ncn1 (relative stereo) [Example 35, (trans)-ethyl 2-((6-(3-cyano-4-((tetrahydro-2H-pyran-4-yl)oxy)phenyl)pyrimidin-4-yl)carbamoyl)cyclopropanecarboxylate] | > 1000 nM | 485 nM
